Measurements reported in patent US20060024658A1, “Composition and methods for evaluating an organism's response to alcohol or stimulants” (priority 1998, published 2006).
Like-named read-outs stand apart in the source and are kept apart here.

What was measured:
SHSY-5Y cells = experiment: Effects of alcohols on gene expression (array hybridization intensity) in SHSY-5Y cells, Study 1; format: cell-based, human; settings: for Co-Activ increase in hybridization / MAP4 increase in hybridization / Na/H Anti increase in hybridization / ZNFP increase in hybridization: 50 mM alcohol, early (2 hour) response, FIG. 2B; for DBH hybridization intensity over baseline / DLK hybridization intensity over baseline / GABA-β3 hybridization intensity over baseline / NPTX2 hybridization intensity over baseline / PDGFR hybridization intensity over baseline / PTK hybridization intensity over baseline: FIG. 2A
Text: Hybridization strength is given a baseline of 1 and increased intensity is expressed in as a multiple of the baseline, i.e., 2-fold, 3-fold, 4-fold etc.
Column 1 lists the presumed functional class of the gene.
Columns are similar to Table 8.

SH-SY5Y cells [1] = system: SH-SY5Y cells
Text: RNA blots were probed with ^32P-labeled inserts of human DBH, NET, DLK and MCP-1 cDNAs. Probes were synthesized by RT-PCR using SH-SY5Y total RNA as template. […] Human GAPDH cDNA probe (Clonetech) was used as an internal control for total RNA normalization.

[2] = system: DBH protein in SH-SY5Y cells
Procedure: (§1) The relative amount of DBH protein between whole cell homogenates of control and ethanol-treated cells was determined by Western blot analysis following standard protocols using a polyclonal antibody (Calbiochem). MCP-1 production was monitored in the culture media of cells treated in the absence or presence of ethanol using the Quantikine MCP-1 immunoassay from R&D System.

[3] = system: MCP-1 release from SH-SY5Y cells; settings: ethanol-treated cells; FIG. 4C
Procedure: as §1

SH-SY5Y cells [4] = settings: 150 mM ethanol, 3 days, media from last 24 h, n=3; control 0.957+/−0.49
Procedure: All HPLC apparatus was from ESA, Inc. (Chelmsford, Mass.). Following precipitation with 0.1 M perchloric acid and centrifugation over a 5000 MW cut-off centrifugal filter, culture media (10 μl aliquot) was injected onto an ESA HR-80 column (C-18, 4.6 mm×8 cm, 3 um particle size) using a Model 540 refrigerated autosampler injector and a Model 580 solvent delivery pump. […] Eluents were detected at a flow rate of 1.0 ml/min using a Model 5011 analytical cell with palladium reference electrode, a Model 5020 guard cell, and a Model 5200A Coulochem II electrochemical detector. Electrode settings were +350 mV for the guard cell, −100 mV for the pre-oxidation electrode, and +280 mV for the detection electrode. Samples were analyzed at 5 nA sensitivity and compared with a two-point monoamine standard calibration curve at 1 and 5 pg/μl using the Model 501 analysis software package.

[5] = system: DBH mRNA in adrenal glands and brain; settings: versus saline
Procedure: Animal studies were conducted on female DBA/2 mice (Simonsen Laboratories, Gilroy, Calif.) weighing 20-30 g at 8 weeks of age. All animals were housed individually under a 12:12 light-dark cycle at 22° C. and given ad libitum access to food and water before and after injection procedures. […] Adrenal glands were dissected out, immediately frozen into liquid nitrogen and stored at −80° C. until needed.
Aliquot of ss cDNA were then used in comparative PCR. […] We performed duplex reaction using GAPDH as an endogenous amplification standard. PCR conditions were optimized so that the amplification of both, GAPDH and DBH cDNAs were in the exponential phase.

[6] = ethanol administration; cited from earlier work
[7] = system: human neuroblastoma SH-SY5Y cells; experiment: Oligonucleotide array (Affymetrix GeneChip Hu6800) gene expression profile after ethanol; settings: 72 h
noradrenergic receptors = settings: in vivo; cited from earlier work
SH-SY5Y cells [8] = experiment: Effect of dexamethasone and db-cAMP on expression of DBH, NET, DLK and MCP-1; format: cell-based, human; settings: 1 mM; data not shown
Text: Previous studies have shown that neuroblastoma cells derived from the neural crest could differentiate either towards a more neuronal phenotype in the presence of retinoic acid, or a chromaffin-like phenotype in the presence of glucocorticoids or dibutyryl-cyclic AMP (db-cAMP). […] Therefore, we tested the effect of dexamethasone and db-cAMP on the expression of our 4 candidate genes.

[9] = 50, 100, 150 mM ethanol, FIG. 3B

With CCO [ethanol] the “Co-Activ increase in hybridization” value (SHSY-5Y cells) was 4 fold, the “MAP4 increase in hybridization” value (SHSY-5Y cells) was 3 fold and the “Na/H Anti increase in hybridization” value (SHSY-5Y cells) was roughly 6 fold. The “ZNFP increase in hybridization” value (SHSY-5Y cells) was 7.5 fold, the “DBH hybridization intensity over baseline” value (SHSY-5Y cells; 50 mM ethanol) was 3 fold and the “DLK hybridization intensity over baseline” value (SHSY-5Y cells; 50 mM ethanol, baseline = 1) was “just over the baseline”. The “GABA-β3 hybridization intensity over baseline” value (SHSY-5Y cells; 50 mM ethanol, baseline = 1) was “just over the baseline”, the “NPTX2 hybridization intensity over baseline” value (SHSY-5Y cells; 50 mM ethanol, baseline = 1) was “just over the baseline” and the “PDGFR hybridization intensity over baseline” value (SHSY-5Y cells; 50 mM ethanol, baseline = 1) was “just over the baseline”. The “PTK hybridization intensity over baseline” value (SHSY-5Y cells; 50 mM ethanol, baseline = 1) was “just over the baseline”, the “DBH hybridization intensity over baseline” value (SHSY-5Y cells; 100 mM ethanol) was 5 fold and the “DLK hybridization intensity over baseline” value (SHSY-5Y cells; 100 mM ethanol) was 3 fold. For the same compound, the “GABA-β3 hybridization intensity over baseline” value (SHSY-5Y cells; 100 mM ethanol) was “around 2 fold”, the “NPTX2 hybridization intensity over baseline” value (SHSY-5Y cells; 100 mM ethanol) was “around 2 fold” and the “PDGFR hybridization intensity over baseline” value (SHSY-5Y cells; 100 mM ethanol) was 3 fold. The “PTK hybridization intensity over baseline” value (SHSY-5Y cells; 100 mM ethanol) was 3 fold, the “DBH hybridization intensity over baseline” value (SHSY-5Y cells; 150 mM ethanol) was roughly 9 fold and the “DLK hybridization intensity over baseline” value (SHSY-5Y cells; 150 mM ethanol) was roughly 7 fold. The “GABA-β3 hybridization intensity over baseline” value (SHSY-5Y cells; 150 mM ethanol) was 2 fold, the “NPTX2 hybridization intensity over baseline” value (SHSY-5Y cells; 150 mM ethanol) was 2 fold and the “PDGFR hybridization intensity over baseline” value (SHSY-5Y cells; 150 mM ethanol) was 5 fold. The “PTK hybridization intensity over baseline” value (SHSY-5Y cells; 150 mM ethanol) was 2 fold, the “DBH, DLK and NET mRNA levels” value (SH-SY5Y cells [1]; 3 days treatment, FIG. 4A) was “increase” and the MCP-1 transcript levels (SH-SY5Y cells [1]; 3 days treatment, FIG. 4A) was “decrease”. For the same compound, the “time after addition at which changes in expression were detected” value (SH-SY5Y cells [1]; DBH, DLK, NET, MCP-1, data not shown) was no more than 24 h, the DBH protein expression ([2]; 150 mM ethanol for 72 h, FIG. 4B) was “enhancement in DBH protein expression” and the “duration of increase in DBH protein levels” value ([2]; continued presence of ethanol, data not shown) was “sustained up to 7 days treatment”. The “MCP-1 peptide release in the culture media” value [3] was “decrease in peptide release”, the “NE levels in the media” value (SH-SY5Y cells [4]) was 23.554+/−5.218 ng/mg of protein and the “DBH mRNA levels in the brain” value ([5]; 6 or 24 h after single dose 4 g/kg i.p., data not shown) was “No difference in expression”. For the same compound, the “DBH mRNA levels in the adrenal” value ([5]; 6 h after single dose 4 g/kg i.p., data not shown) was “No difference in expression”, the “DBH mRNA levels in the adrenal” value ([5]; 24 h after single dose 4 g/kg i.p., FIG. 5) was “significant increase” and the plasma norepinephrine levels [6] was “dose-dependent elevation”. The “E100, change in expression of ARHGDIB (L20688)” value ([7]; 100 mM ethanol) was −0.7, the “E100, change in expression of CPE (X51405)” value ([7]; 100 mM ethanol) was 1.2 and the “E100, change in expression of DBH (X13255)” value ([7]; 100 mM ethanol) was 5.4. For the same compound, the “E100, change in expression of DLK1 (T49117)” value ([7]; 100 mM ethanol) was 2.9, the “E100, change in expression of DUSP4 (U21108)” value ([7]; 100 mM ethanol) was 0.9 and the “E100, change in expression of E2-28.4 (EST) (R01227)” value ([7]; 100 mM ethanol) was 1. For the same compound, the “E100, change in expression of EGFR (H02836)” value ([7]; 100 mM ethanol) was 1, the “E100, change in expression of EST H08637 (NF1)” value ([7]; 100 mM ethanol) was 0.9 and the “E100, change in expression of EST R47985 (Acrosin)” value ([7]; 100 mM ethanol) was −1.3. The “E100, change in expression of EST R60751 (IEP2)” value ([7]; 100 mM ethanol) was −0.8, the “E100, change in expression of EST R73461 (TCRbeta)” value ([7]; 100 mM ethanol) was −3.7 and the “E100, change in expression of EST T94087 (JNK2)” value ([7]; 100 mM ethanol) was 1. The “E100, change in expression of FKHL1 (R60332)” value ([7]; 100 mM ethanol) was −0.9, the “E100, change in expression of GCH1 (U19523)” value ([7]; 100 mM ethanol) was 1.6 and the “E100, change in expression of GLRX (X76648)” value ([7]; 100 mM ethanol) was 1.4. For the same compound, the “E100, change in expression of GPI-H (L19783)” value ([7]; 100 mM ethanol) was −0.6, the “E100, change in expression of GSTM4 (M99422)” value ([7]; 100 mM ethanol) was 0.9 and the “E100, change in expression of HIRH (H14506)” value ([7]; 100 mM ethanol) was −1. The “E100, change in expression of IL7 (J04156)” value ([7]; 100 mM ethanol) was −0.7, the “E100, change in expression of KRT18 (T53412)” value ([7]; 100 mM ethanol) was −2.3 and the “E100, change in expression of LUM (U21128)” value ([7]; 100 mM ethanol) was 1.6. For the same compound, the “E100, change in expression of MCP1 (M26683)” value ([7]; 100 mM ethanol) was −1.9, the “E100, change in expression of MGP (H52207)” value ([7]; 100 mM ethanol) was −0.7 and the “E100, change in expression of NAIP (U19251)” value ([7]; 100 mM ethanol) was 0.9. For the same compound, the “E100, change in expression of NEF3 (Y00067)” value ([7]; 100 mM ethanol) was 1.4, the “E100, change in expression of NFIB2/3 (H91713)” value ([7]; 100 mM ethanol) was 2.1 and the “E100, change in expression of NP (T47964)” value ([7]; 100 mM ethanol) was 0.5. The “E100, change in expression of NPTX2 (U29195)” value ([7]; 100 mM ethanol) was 0.9, the “E100, change in expression of NSMAF (R41765)” value ([7]; 100 mM ethanol) was 1.1 and the “E100, change in expression of PGY1 (M29447)” value ([7]; 100 mM ethanol) was 2.3. For the same compound, the “E100, change in expression of PMSCL2 (R40490)” value ([7]; 100 mM ethanol) was 0.7, the “E100, change in expression of PRHX (X67235)” value ([7]; 100 mM ethanol) was 1 and the “E100, change in expression of RAC2 (H42477)” value ([7]; 100 mM ethanol) was −0.9. The “E100, change in expression of RPL14 (R82938)” value ([7]; 100 mM ethanol) was −0.5, the “E100, change in expression of SLC6A2(NET) (M65105)” value ([7]; 100 mM ethanol) was 2.6 and the “E100, change in expression of SOX9 (Z46629)” value ([7]; 100 mM ethanol) was −1.2. The “E100, change in expression of SPARC (T54767)” value ([7]; 100 mM ethanol) was −1.3, the “E100, change in expression of SSH3BP1 (R34245)” value ([7]; 100 mM ethanol) was 0.7 and the “E100, change in expression of TMPO (U09086)” value ([7]; 100 mM ethanol) was 1. For the same compound, the “E100, change in expression of TP53 (X54156)” value ([7]; 100 mM ethanol) was −1.1, the “E100, change in expression of ZNF42 (R83364)” value ([7]; 100 mM ethanol) was −1.9 and the “DBH mRNA levels, dose dependence” value [7, 9] was “changed in a dose-dependent manner”. The “DLK, NET and MCP-1 gene expression, dose dependence” value [7, 9] was “showed a dose-response” and the “expression of gene encoding α7 subunit of the neuronal acetylcholine receptor (nAChRα7)” value ([7]; 100 mM ethanol, FIG. 3A) was “downregulated”.

For Clc1cccc(Cl)c1N=C1NCCN1 [clonidine], the ethanol withdrawal syndrome (noradrenergic receptors) is given as “strongly reduce ethanol withdrawal syndrome”.

In the case of CCCO [propanol, reference compound], the “Co-Activ increase in hybridization” value (SHSY-5Y cells) is reported as greater than 6.5 fold, the “MAP4 increase in hybridization” value (SHSY-5Y cells) is reported as 4 fold and the “Na/H Anti increase in hybridization” value (SHSY-5Y cells) is reported as 6.5 fold. The “ZNFP increase in hybridization” value (SHSY-5Y cells) was greater than 6 fold.

For CO [methanol, reference compound], the “Co-Activ increase in hybridization” value (SHSY-5Y cells) was 1.5 fold, the “MAP4 increase in hybridization” value (SHSY-5Y cells) was greater than 2 fold and the “Na/H Anti increase in hybridization” value (SHSY-5Y cells) was 1.5 fold. The “ZNFP increase in hybridization” value (SHSY-5Y cells) was 1.5 fold.

With CCCC(=O)Nc1ncnc2c1ncn2[C@@H]1O[C@@H]2COP(=O)(O)O[C@H]2[C@H]1OC(=O)CCC [db-cAMP, dibutyryl-cyclic AMP] the “time after treatment at which effects were significant” value (SH-SY5Y cells [8]) was no more than 24 h.
